From US7301020B2, “Macrolide analogs and methods for identifying same” (priority 2003, dated 2007)
pKd: −log10 of the molar value. Values joined by “and” are separate entries in the source; they are usually repeats but may differ in a detail not shown here. Equal entries are not always repeated. “Also recorded” adds a separate entry of the source.

Columns and labels:
NBT-II cells = experiment: Effect of macrolides on NBT-II cells (live cell microscopy); format: cell-based, rat
Protocol: FIG. 7: Effect of KabC on NBT-II cells. NBT-II cells are imaged after 16 hours of drug treatment. KabC concentrations: (A), Control; (B), 10 nM; (C), 100 nM and (D), 1000 nM.
Cell Culture: Rat bladder NBT-II carcinoma cells and mouse NIH 3T3 fibroblast cells are maintained and treated with external drugs as described in Choidas et al (1998).
Live cell microscopy: A multi-model microscope workstation was used to image phase contrast and fluorescence images of living cells (Choidas et al, 1998). Cells are maintained at 37° in a Hepes based culture medium in a Bioptechs cell perfusion chamber (Choidas et al, 1998).

Prodan-G-actin = Prodan-G-actin (Oryctolagus cuniculus, UniProt P68135); experiment: Kinetic analysis of binding to Prodan-G-actin (stopped-flow and slow phase); design: F-actin is purified from rabbit skeletal muscle using a standard protocol; Prodan (Acrylodan) fluorophore, chemical label on the thiol of Cys374; from tissue; host or cells: rabbit skeletal muscle; species or system rabbit
Protocol: FIG. 3: Kinetic analyses of KabC binding of Prodan labeled G-actin. (A-B). Prodan-actin (0.1 μM) and KabC, loaded into separated syringes, were rapidly mixed within ˜1 msec dead-time. The concentrations of KabC were 0.0 μM (a), 1.0 μM (b), 1.5 μM (c), 2.0 μM (d) and 2.5 μM (data not shown), respectively. The decreases in emission intensity were well fitted with single exponential functions to determine the observed rate, kobs. The observed rates are plotted as a function of the [KabC] in panel (B).
Kinetic analysis of binding reactions. The kinetics of the KabC interaction with Prodan-actin is determined, using an Applied Photophysics SX.18MV Stopped-flow spectrometer, by following the decrease in the emission intensity of Prodan-actin at 25° C. Prodan was excited at 385 nm and emission was collected with a 470 nm (+/−5 nm) band-pass filter. In all cases the decrease in emission intensity was best fit with a single exponential function, which was then used to determine the observed rate, kobs. Kinetic constants of on rate (kon) and off rate (koff) were calculated according to the following equation: kobs=kon[KabC]+koff. The kinetics of the slower binding step observed in the interaction of KabC with Prodan-G-actin interaction is measured by measuring the ratio of fluorescence signals at 465 nm and 530 nm. The decay of this ratio is fit using a single exponential rate.

Prodan-labeled G-actin = target: T1, Prodan-labeled G-actin (Oryctolagus cuniculus, UniProt P68135); experiment: Prodan-G-actin titration: binding stoichiometry and dissociation constant; design: species or system rabbit
T1 construct: F-actin is purified from rabbit skeletal muscle using a standard protocol; Prodan (Acrylodan) fluorophore, chemical label on the thiol of Cys374; from tissue; host or cells: rabbit skeletal muscle
Protocol: FIG. 2: (A), Stoichiometric binding of Prodan-labeled G-actin (1 μM) in G-buffer with KabC at final concentrations of in μm, a: 0.0; b: 0.1; c: 0.2; d: 0.3; e: 0.4; f: 0.5; g: 0.6; h: 0.7; i: 0.8; j: 0.9; k: 1.0; l: 1.1; m: 1.2; n: 1.5 (B), Plot of the integrated intensity in (A) against [KabC] yields a binding stoichiometry of 1:1.
Prodan-actin: Actin is labeled with the thiol probe, Acrylodan (Molecular Probes, Eugene, Oreg.) using a standard protocol (Marriott et al, 1988). Rabbit muscle G-actin is labeled with the thiol reactive, environmentally sensitive probe, Acrylodan, according to the inventor's earlier publication (Marriott et al, 1988). […]
Determination of the binding stoichiometry and dissociation constants for G-actin complexes with ABPs and macrolide drugs: The change in the quantum yield and/or emission energy of Prodan-actin is used to quantify the interaction of CapG and macrolides with G-actin. The stoichiometry of the CapG-G-actin and macrolide-G-actin complex is determined by titrating Prodan-G-actin at 1 μM with increasing amounts of CapG or the macrolide from 0.1^−10 μM. […] The equilibrium binding constant is determined by titrating a constant amount of Prodan labeled G-actin at 0.05˜0.1 μM in G- or F-buffer with incrementally increasing amounts of the macrolide or CapG over a range of 10 nM to 10 μM. […]

Kabiramide C [KabC]
concentration at which cytotoxic effects are seen (NBT-II cells): > 10 nM
cytotoxic activity on NBT II epithelia cells (NBT-II cells): concentration dependent cytotoxic activity
cell phenotype (NBT-II cells; 10 nM, >12 hours): fail to complete cytokinesis and are immotile
cell phenotype (NBT-II cells; 100 nM): the cells lose control of contractile functions and have enlarged vesicles
cell phenotype (NBT-II cells; 1 μM or higher): complete breakdown of their actin cytoskeleton and die within a few hours
time to cell death (NBT-II cells; 1000 nM): 8˜12 hours
cell phenotype (NBT-II cells; 10˜100 nM): an increase in the number of blebs, a breakdown in the adherens junction and a cytokinesis defect; also recorded: cytoskeleton-linked phenotypes
binding steps in reaction with G-actin (Prodan-G-actin): two-step reaction
koff (Prodan-G-actin; Prodan-actin 0.1 μM, Y-intercept of kobs vs [KabC]): 5.6 s⁻¹
kon (Prodan-G-actin; Prodan-actin 0.1 μM, slope of kobs vs [KabC]): 5.45e+07 M⁻¹ s⁻¹
rate of second, slower phase of G-actin binding (Prodan-G-actin; decrease at 465 nm relative to red edge): 0.008 s⁻¹ and 0.005 s⁻¹
rate of primary binding event (Prodan-G-actin; fluorescence quenching of Prodan-actin): 30 s⁻¹
pKd (Prodan-G-actin; koff/kon, read-out: dissociation constant (Kd) from kinetic constants): ~7.00
decrease of quantum yield of Prodan-G-actin on binding (Prodan-labeled G-actin): ~3 fold
